“Also recorded” adds a separate entry of the source.
How the values were obtained:
[1] = test system: glomerular epithelial cells GEC; experiment: PAN induced catalytic iron release from GEC (bleomycin detectable iron); assay type: cell-based, rat; details: PAN 1.5 mM 1 h; preincubation CM 2 mM, PB 25 μM, RN 1 mM, PIP 0.2 mM, pyruvate 10 mM
Method: Iron capable of catalyzing free radical reactions was measured by bleomycin detectable iron assay as described by Gutteridge et al, 1981, Biochem. J. 199:263-265, Gutteridge et al, 1982, Biochem. J. 206:605-609, Baliga et al, 1993, Bioche. J. 291:901-905, Baliga et al, 1996, Kidney Int. 49:362-369, Baliga et al, Kidney Int. 53:394-401, Ueda et al, 1996, Kidney Int. 49:370-373, Baliga et al, 1998, Kidney Int. 54:1562-1569.
Confluent cell monolayer was washed three times with Chelex-treated HBSS to remove as much contaminating iron as possible. The GEC monolayer was then incubated in Chelex-treated HBSS with cytotoxic dose of PAN for a period time at 37° C. before substantial cell killing and after significant iron release occurs (1.5 mM, 60 min, based on a time course study on iron release induced by PAN, data not shown). The incubation medium was then collected for the measurement of catalytic iron using bleomycin detectable iron assay as mentioned above. To determine the effect of CYP inhibitors on the iron release, GEC monolayer was preincubated with CM (2 mM), RN (1 mM, as a control of CM) for 30 min or PB (25 uM) for 60 min in Chelex-treated HBSS at 37° C. After the incubation, the medium with CYP inhibitor was discarded and then the cell monolayers were washed twice with chelex-treated HBSS prior to the incubation of PAN.

[2] = test system: PAN-induced nephrotic syndrome; experiment: PAN-induced nephrotic syndrome: proteinuria and serum albumin; assay type: in vivo, rat; details: PAN-treated rats; for proteinuria: daily urine protein to day 7; for serum albumin: day 7
Method: Male Sprague-Dawley rats weighing 200-250 g were injected either saline or a single intravenous injection of PAN (Sigma, St. Louis) in a dose of 7.5 mg/100g BW (day 0) as described in Ueda et al, 19996, Kidney Intl. 49:370-373. Animals were housed in separate metabolic cages and allowed free access to rat chow (Purina). Daily urine protein excretion was determined and animals were sacrificed on day 7. Blood was obtained for the measurement of serum albumin and the evaluation of renal function as measured by blood urea nitrogen (BUN) and plasma creatinine. Cell fraction of the glomeruli was prepared for bleomycin detectable iron assay. The microsome fraction was utilized for the measurement of CYP content.
Two different general CYP inhibitors were used, cimetidine (CM) and piperonyl butoxide (PB). Cimetidine has imidazole and cyano groups that inhibit CYP by interacting with the heme moiety. […] To determine the effect of the CYP inhibitors in PAN- induced nephrotic syndrome, CM (120 mg/kg BW) was administered intraperitoneal 1 h prior to PAN injection and then twice a day. Piperonyl butoxide (PB) which yields a metabolite that binds to the heme moiety of CYP, was given intraperitoneal (400 mg/kg BW) 4h before PAN injection and then every other day.
PIP is believed to inhibit CYP2B1 by forming an inhibitory complex therewith. PIP was administered at a dose of 85 mg/kg of body weight (BW) by an intraperitoneal injection 16 hours prior to PAN injection and then once a day.

CYP2B1 = CYP2B1 content in GEC exposed to PAN (western blot); assay type: cell-based, rat; details: PAN 1.5 mM for 2 hr at 37° C.; CM 2 mM, PIP 0.2 mM, pyruvate 10 mM
Description: The microsome fraction obtained was subjected to SDS-page electrophoresis in 1 mm slab gels. The separated forms were transferred from gel to a nitrocellulose sheet using a Mini Trans-blot electroblotting unit. The primary antibodies were monoclonal anti-HO-1 (OSA-111, StressGen, Victoria, BC, Canada) and monoclonal anti-CYP2B1 (PM25, Oxford Biomedical Research, Oxford, Mich., USA). Subsequent to primary and secondary antibody (peroxidase-labeled) treatment, the blots were visualized by enhanced chemiluminescence method.

[3] = Renal function (serum creatinine, BUN) in PAN-treated rats; assay type: in vivo, rat; details: PAN-treated rats with or without PIP or CM
Method: BUN and creatinine were measured by using assay kits from Sigma.

H2O2 in the glomeruli = experiment: Ultrastructural localization of H2O2 (cerium histochemistry) in rat kidney; assay type: in vivo; details: rats
Method: The principle of this method is that cerium ions combine with H2O2 generated by the cell that results in a precipitate with properties suitable for ultrastructural histochemistry. Localization of H2O2 generation was performed following the procedure of Neale et al (PNAS, USA, 1993, 90:3645-3649.). Following PAN treatment, the left kidney was perfused at 37° C. by retrograde aortic perfusion with 4 ml of each of the following solutions: a) PBS; b) 20 mmol Tris-maleate buffer (pH 7.2) containing 7% sucrose (TMS); c) TMS containing 1 mmol aminotriazole; d) TMS containing 10 mmol aminotriazole, 1 mmol cerium chloride heptahydrate and 2.56 mmol B-NADPH; and e) TMS followed by 10 mmol of 2.5% glutaraldehyde as the fixative. Pieces of the kidney were fixed further for 2 hours in glutaraldehyde and embedded in Epon. Sections from the tissue block were routinely stained with 4% aqueous uranyl acetate and alkaline lead, and examined under a Leo 906 electron microscope.

[4] = test system: microsomal CYP isolated from GEC; experiment: H2O2 generation and catalytic iron release from microsomes isolated from GEC; assay type: biochemical, rat; parameters: H2O2 generation from GEC microsomal fraction: dose or concentration left out as unconfirmed
Method: The generation of H2O2 and catalytic iron from microsomal CYP isolated from GEC was also analyzed.

Row | Compound | bleomycin detectable (catalytic) iron release from GEC [1] | proteinuria [2] | proteinuria ([2]; listed as C<) | serum albumin [2] | CYP2B1 content in GEC (CYP2B1) | serum creatinine ([3]; control 0.72±0.2) [mg/dL] | BUN ([3]; control 21±3, P<0.05 vs control) [mg/dL] | cerium-H2O2 reaction product in the glomerular basement membrane (H2O2 in the glomeruli; 1 hour and 6 hours after PAN injection) | foot processes (electron microscopy) (H2O2 in the glomeruli; fourth day after PAN, onset of proteinuria) | H2O2 generation from GEC microsomal fraction ([4]; PAN) | catalytic iron release from GEC microsomal fraction ([4]; PAN 91.5 mM) as printed)
1 | CN/C(=N/CCSCc1nc[nH]c1C)NC#N [CM, cimetidine] | drastically prevents the increase; also recorded: prevented the increase | substantial protection | significant protection | prevented | preserved |  |  |  |  |  | 
2 | CN(C)c1ncnc2c1ncn2[C@@H]1O[C@H](CO)[C@@H](N)[C@H]1O [PAN, puromycin aminonucleoside] | significant increase | significant proteinuria on the fourth day; also recorded: nephrotic range proteinuria |  | markedly decreased; also recorded: significant decrease | significant reduction | 0.85 ± 0.2 | 33 ± 4 | diffusely distributed throughout the glomerular basement membrane | marked fusion of the foot processes | H2O2 generation in a time dependent fashion | marked increase

Reference: patent US20040014772A1, “Compositions and methods for treating glomerular disorders” (priority 2000, published 2004)
